Measurements published in patent US4518581A, “Imparting low- or anti-cariogenic property to orally-usable products” (Kabushiki Kaisha Hayashibara Seibutsu Kagaku Kenkyujo, priority 1981, dated 1985).

Experiments:
[1] = target: T1, water-insoluble glucan producing enzyme (Streptococcus downei, UniProt P27470); test: Effect of saccharides on formation of water-insoluble glucan from sucrose (Experiment 3); assay type: biochemical, Streptococcus mutans 6715 strain; details: 1 ml 4 w/v % sucrose plus 1 ml 4 w/v % saccharide, 0.02 units enzyme, 37° C., 16 hours; for A: amounts of water-insoluble glucan formed: sucrose control 300
T1 construct: endogenous in cells; host or cells: Streptococcus mutans 6715 strain (today S. sobrinus), culture supernatant, ammonium sulfate precipitate, dialyzed
T1 sequence (P27470 39-1592): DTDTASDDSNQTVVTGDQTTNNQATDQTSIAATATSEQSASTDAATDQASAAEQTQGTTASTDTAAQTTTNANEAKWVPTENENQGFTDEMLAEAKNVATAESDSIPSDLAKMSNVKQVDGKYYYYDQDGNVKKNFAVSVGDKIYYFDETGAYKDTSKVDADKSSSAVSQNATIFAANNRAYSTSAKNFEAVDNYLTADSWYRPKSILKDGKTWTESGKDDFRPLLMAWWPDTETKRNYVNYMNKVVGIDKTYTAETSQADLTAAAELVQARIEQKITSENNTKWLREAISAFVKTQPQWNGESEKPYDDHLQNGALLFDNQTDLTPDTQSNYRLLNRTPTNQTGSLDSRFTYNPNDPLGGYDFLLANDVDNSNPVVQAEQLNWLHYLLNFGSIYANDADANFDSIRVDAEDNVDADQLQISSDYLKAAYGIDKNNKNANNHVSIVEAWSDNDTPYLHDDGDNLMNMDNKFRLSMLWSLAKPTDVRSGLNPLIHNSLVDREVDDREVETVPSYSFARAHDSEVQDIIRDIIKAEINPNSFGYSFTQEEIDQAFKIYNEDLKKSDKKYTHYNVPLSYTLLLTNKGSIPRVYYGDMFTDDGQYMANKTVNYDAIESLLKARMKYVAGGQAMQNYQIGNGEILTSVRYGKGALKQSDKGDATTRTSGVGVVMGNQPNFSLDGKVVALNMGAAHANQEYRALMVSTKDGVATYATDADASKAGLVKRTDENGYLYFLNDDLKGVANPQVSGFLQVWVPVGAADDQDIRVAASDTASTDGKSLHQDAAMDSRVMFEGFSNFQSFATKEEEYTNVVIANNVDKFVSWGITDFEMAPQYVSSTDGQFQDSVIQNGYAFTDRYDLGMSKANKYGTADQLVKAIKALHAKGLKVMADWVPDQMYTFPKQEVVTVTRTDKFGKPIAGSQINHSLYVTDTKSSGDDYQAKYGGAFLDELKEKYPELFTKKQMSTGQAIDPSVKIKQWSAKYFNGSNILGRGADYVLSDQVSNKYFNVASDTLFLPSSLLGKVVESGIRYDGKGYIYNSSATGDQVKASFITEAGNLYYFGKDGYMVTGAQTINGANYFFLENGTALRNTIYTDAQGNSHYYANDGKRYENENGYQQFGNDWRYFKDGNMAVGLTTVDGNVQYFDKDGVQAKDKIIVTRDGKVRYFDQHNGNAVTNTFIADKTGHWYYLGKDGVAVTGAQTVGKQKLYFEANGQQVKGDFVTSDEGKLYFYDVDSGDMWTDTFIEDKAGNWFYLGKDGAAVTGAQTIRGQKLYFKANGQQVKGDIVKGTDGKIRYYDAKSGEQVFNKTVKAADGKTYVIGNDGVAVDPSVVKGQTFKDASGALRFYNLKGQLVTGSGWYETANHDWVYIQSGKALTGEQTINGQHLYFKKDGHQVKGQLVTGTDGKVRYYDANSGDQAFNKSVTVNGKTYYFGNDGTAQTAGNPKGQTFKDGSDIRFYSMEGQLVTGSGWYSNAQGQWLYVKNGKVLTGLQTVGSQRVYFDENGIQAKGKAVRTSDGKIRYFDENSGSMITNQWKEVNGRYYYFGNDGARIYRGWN
Description: After completion of the cultivation, the culture was separated into cell precipitant and supernatant. Thereafter, to the supernatant was added with ammonium sulfate to give 60% saturation, and the resultant precipitant was dialyzed against 0.1M phosphate buffer (pH 7.2) to obtain an aqueous solution containing the enzyme.
The titers of the enzyme were assayed as follows: A mixture solution, consisting of 1 ml of 0.2M aqueous sucrose solution, 1 ml of water, 1 ml of 0.1M phosphate buffer containing 0.05 w/v % NaN3, and 0.5 ml of the enzyme solution (below 0.05 units), is incubated at 37° C. for 9 hours, followed by centrifugation of the reaction mixture. The resultant precipitant is mixed with 4 ml of 0.5N sodium hydroxide solution, and then incubated at this temperature for an additional one hour to dissolve the precipitant. The amount of water-insoluble glucan formed during the enzymatic reaction is then measured. One unit of the enzyme is defined as the amount of enzyme that transfers 1 μmole glucose from sucrose to the water-insoluble glucan in one minute.
Effects of some saccharides on the formation of water-insoluble glucan were tested: Water-insoluble glucan formation and inhibition thereof were determined according to the enzyme assay method as described in EXPERIMENT 1, except that the mixture solution contained sucrose, or sucrose and each saccharide as listed in TABLE I. The experiment was carried out as follows: A mixture solution, consisting of 1 ml of 4 w/v % aqueous sucrose solution, 1 ml of 4 w/v % aqueous solution of each saccharide as listed in TABLE I, 1.5 ml of 0.1M phosphate buffer containing 0.05 w/v % NaN3, and 0.5 ml of the enzyme solution (0.02 units), was incubated at 37° C. for 16 hours, and the water-insoluble glucan formation in the reaction mixture was determined according to the enzyme assy method.
In a control experiment, 1 ml of the above described saccharide solution was replaced with the same amount of water.
The inhibition degree was calculated with following equation:
Inhibition degree (%)=100-A/B×100
where A and B are respective amounts of the water-insoluble glucan formed (μg/ml) when the mixture solution contained sucrose or sucrose and each of the saccharides.

[2] = target: T1, water-insoluble glucan producing enzyme; test: as above; assay type: biochemical, Streptococcus mutans 6715 strain; details: saccharide reduced to 10% against sucrose: 1 ml 4 w/v % sucrose plus 1 ml 0.4 w/v % saccharide, 37° C., 16 hours
[3] = system: Streptococcus mutans 6715 strain; test: Organic acid formation from saccharides by Streptococcus mutans cells, pH-measurement (Experiment 4); assay type: cell-based; details: 37° C., 30 minutes; for organic acid formation from the saccharide: Streptococcus mutans 6715 cells; for pH-Level of the reaction mixture (organic acid formation): cell suspension, Stephan's buffer (pH 7.0), saccharide solution
Description: Organic acid formation from some saccharides by Streptococcus mutans was tested: Streptococcus mutans 6715 strain was cultivaed similarly as in EXPERIMENT 1, and the cells, obtained by centrifuging the culture, were washed with 0.9 w/v % sodium chloride solution, followed by additional centrifugation. Two ml of a mixture solution, consisting of 0.2 ml of the cell suspension, prepared from about 100 ml of the culture, 1.5 ml of Stephan's buffer, and 0.3 ml aqueous solution of each saccharide as listed in TABLE II, was incubated at 37° C. for 30 minutes, followed by pH-measurement of the reaction mixture. The Stephan's buffer was prepared by the method as reported by R. M. Stephan et al., Journal of Dental Research, Vol.26, pp.15-41 (1947): One ml of Solution I, prepared by dissolving 17.89 g Na2 HPO4. 12H2 O, 7.92 g KOH and 6.81 g KH2 PO4 in water to give a final volume of 100 ml, was placed in a 100-ml volumetric flask, and mixed with about 90 ml of water. To the flask was added 1 ml of Solution II, prepared by dissolving 4.54 g KH2 PO4, 0.32 g MgSO4.7H2 O, 0.57 g CaSO4.2H2 O and 10 ml of 3.5% hydrochloric acid solution in water to give a final volume of 100 ml. This mixture was diluted with additional water to obtain 100 ml of Stephan's buffer (pH 7.0).
The results are given in TABLE II, wherein the organic acid formation from the saccharides can be estimated by the pH-values.

Structure (SMILES) | A: amounts of water-insoluble glucan formed [1] [µg/mL] | C: inhibition degree of water-insoluble glucan formation [2] [%] | C: inhibition degree of water-insoluble glucan formation ([2]; listed as isomaltopentaose) | organic acid formation from the saccharide [3] | pH-Level of the reaction mixture (organic acid formation) [3] | B: inhibition degree on water-insoluble glucan formation [1] [%] | C: inhibition degree of water-insoluble glucan formation ([2]; listed as isomaltosyl maltose) | C: inhibition degree of water-insoluble glucan formation ([2]; listed as isomaltotetraose)
OC[C@H]1O[C@H](OC[C@H]2O[C@H](OC[C@H]3O[C@H](OC[C@H]4O[C@H](OC[C@H]5OC(O)[C@H](O)[C@@H](O)[C@@H]5O)[C@H](O)[C@@H](O)[C@@H]4O)[C@H](O)[C@@H](O)[C@@H]3O)[C@H](O)[C@@H](O)[C@@H]2O)[C@H](O)[C@@H](O)[C@@H]1O (stereo partly drawn) [Isomaltopentaose, 6^3 -O-α-isomaltosyl isomaltotriose] | 15 | 60 | 45-60% | no organic acid formation | 7.0 |  |  | 
OC[C@H]1O[C@@](CO)(OC[C@H]2O[C@](O)(CO)[C@@H](O)[C@@H]2O)[C@@H](O)[C@@H]1O [Levanbiose] | 288 |  |  |  | 6.5 | 4 |  | 
OC[C@H](O)[C@@H](O)[C@H](O)[C@H](O)CO[C@H]1O[C@H](CO[C@H]2O[C@H](CO[C@H]3O[C@H](CO[C@H]4O[C@H](CO)[C@@H](O)[C@H](O)[C@H]4O)[C@@H](O)[C@H](O)[C@H]3O)[C@@H](O)[C@H](O)[C@H]2O)[C@@H](O)[C@H](O)[C@H]1O [Isomaltopentaitol, 6^3 -O-α-isomaltosyl isomaltotriitol] | 66 |  |  | no organic acid formation | 7.0 |  |  | 
OC[C@H]1O[C@@](CO)(OC[C@H]2O[C@@](CO)(O[C@H]3O[C@H](CO)[C@@H](O)[C@H](O)[C@H]3O)[C@@H](O)[C@@H]2O)[C@@H](O)[C@@H]1O [6-Kestose] | 291 |  |  |  | 6.8 | 3 |  | 
OC[C@H]1O[C@@H](OC[C@H]2OC(O)[C@H](O)[C@@H](O)[C@@H]2O)[C@H](O)[C@@H](O)[C@@H]1O (stereo partly drawn) [Gentiobiose] | 300 |  |  |  | 7.0 |  |  | 
OC[C@H]1O[C@H](OC[C@H]2OC(O)[C@H](O)[C@@H](O)[C@@H]2O)[C@H](O)[C@@H](O)[C@@H]1O (stereo partly drawn) [Isomaltose] | 72 |  |  |  | 7.0 |  |  | 
OC[C@H](O)[C@@H](O)[C@H](O)[C@H](O)CO[C@H]1O[C@H](CO[C@H]2O[C@H](CO)[C@@H](O)[C@H](O)[C@H]2O)[C@@H](O)[C@H](O)[C@H]1O [Isomaltotriitol, 6-O-α-isomaltosyl glucitol] | 60 |  |  | no organic acid formation | 7.0 |  |  | 
OC[C@H]1OC(O)C[C@@H](O)[C@@H]1O (stereo partly drawn) [2-Deoxy Glucose] | 285 |  |  |  | 7.0 | 5 |  | 
OC[C@H]1O[C@H](OC[C@H]2O[C@H](O[C@H]3[C@H](O)[C@@H](O)[C@@H](O[C@H]4[C@H](O)[C@@H](O)C(O)O[C@@H]4CO)O[C@@H]3CO)[C@H](O)[C@@H](O)[C@@H]2O)[C@H](O)[C@@H](O)[C@@H]1O (stereo partly drawn) [Isomaltosyl maltose, 4^2 -O-α-isomaltosyl maltose] | 24 | 55 |  | no organic acid formation | 7.0 |  | 45-60% | 
OC[C@H]1O[C@H](OC[C@H]2O[C@H](OC[C@H]3O[C@H](OC[C@H]4OC(O)[C@H](O)[C@@H](O)[C@@H]4O)[C@H](O)[C@@H](O)[C@@H]3O)[C@H](O)[C@@H](O)[C@@H]2O)[C@H](O)[C@@H](O)[C@@H]1O (stereo partly drawn) [Isomaltotetraose, 6^2 -O-α-isomaltosyl isomaltose] | 18 | 58 |  | no organic acid formation | 7.0 |  |  | 45-60%
O=C(CO)[C@@H](O[C@H]1O[C@H](CO)[C@@H](O)[C@H](O)[C@H]1O)[C@H](O)[C@H](O)CO [Turanose] | 273 |  |  |  | 7.0 | 9 |  | 
O=C(CO)[C@@H](O)[C@H](O)[C@@H](O)CO [L-Sorbose] | 261 |  |  |  | 7.0 | 13 |  | 
OC[C@H]1O[C@H](O[C@H]2[C@H](O)[C@@H](O)[C@@H](OC[C@H]3OC(O)[C@H](O)[C@@H](O)[C@@H]3O)O[C@@H]2CO)[C@H](O)[C@@H](O)[C@@H]1O (stereo partly drawn) [Isopanose] | 282 |  |  |  | 7.0 | 4 |  | 
C[C@@H]1OC(O)[C@H](O)[C@H](O)[C@H]1O (stereo partly drawn) [Rhamnose, L-Rhamnose] | 300 |  |  |  | 7.0 | 0 |  | 
OC1OC[C@H](O)[C@H](O)[C@H]1O (stereo partly drawn) [L-Arabinose] | 294 |  |  |  | 7.0 | 2 |  | 
OC[C@@H](O)[C@@H](O[C@H]1O[C@H](CO)[C@@H](O[C@H]2O[C@H](CO)[C@@H](O[C@H]3O[C@H](CO)[C@@H](O[C@H]4O[C@H](CO)[C@@H](O)[C@H](O)[C@H]4O)[C@H](O)[C@H]3O)[C@H](O)[C@H]2O)[C@H](O)[C@H]1O)[C@H](O)[C@@H](O)CO [Maltopentaitol] | 265 |  |  |  | 7.0 | 12 |  | 
CO[C@H]1O[C@H](CO)[C@@H](O)[C@H](O)[C@H]1O [Methyl-α-D-Glucose] |  |  |  |  | 7.0 | 14 |  | 
OC[C@@H](O)[C@@H](O)CO [Erythlitol] | 290 |  |  |  | 7.0 | 3 |  | 
